Structures can show the parent of a compound that is named as a salt.
Columns and labels:
[1] = system: VSVpp; test: microbe, parasite or virus in culture; type: cell-based; conditions: Vesicular stomatitis virus, 72 h, read-out: VSVpp (EC50, μM)
[2] = system: HCVpp GT-1b; test: microbe, parasite or virus in culture; type: cell-based, Hepatitis C virus (GT1b Con1 strain); conditions: Hepatitis C virus, GT1B, 72 h, read-out: HCVpp GT-1b (EC50, μM)

Compound	EC50 [1]	EC50 [2]
FC(F)(F)c1ccc(CNc2nc(Nc3cc(Cl)c(Br)c(C(F)(F)F)c3)n[nH]2)cc1 [Compound 1, N3-(4-bromo-3-chloro-5-(trifluoromethyl)phenyl)-N5-(4-(trifluoromethyl)benzyl)-1H-1,2,4-triazole-3,5-diamine]	13.7 µM	1.35 µM
Clc1cc(Cl)cc(Nc2n[nH]c(NCc3ccco3)n2)c1 [Compound 2, N3-(3,5-dichlorophenyl)-N5-(furan-2-ylmethyl)-1H-1,2,4-triazole-3,5-diamine]	11.9 µM	2.58 µM
Cc1ccc(CNc2nc(Nc3cc(Cl)cc(Cl)c3)n[nH]2)o1 [Compound 3, N3-(3,5-dichlorophenyl)-N5-((5-methylfuran-2-yl)methyl)-1H-1,2,4-triazole-3,5-diamine]	19.3 µM	3.27 µM
FC(F)(F)c1ccc(Cl)cc1CNc1nc(Nc2cc(Cl)cc(Cl)c2)n[nH]1 [Compound 4, N5-(5-chloro-2-(trifluoromethyl)benzyl)-N3-(3,5-dichlorophenyl)-1H-1,2,4-triazole-3,5-diamine]	13.2 µM	4.66 µM
Clc1ccc(CNc2nc(Nc3cc(Cl)cc(Cl)c3)n[nH]2)nc1 [Compound 5, N5-((5-chloropyridin-2-yl)methyl)-N3-(3,5-dichlorophenyl)-1H-1,2,4-triazole-3,5-diamine]	33.6 µM	1.57 µM
CC(C)(C)OC(=O)Nc1ccc(CNc2nc(Nc3cc(Cl)cc(Cl)c3)n[nH]2)cn1 [Compound 6, Tert-butyl 5-((3-(3,5-dichlorophenylamino)-1H-1,2,4-triazol-5-ylamino)methyl)pyridin-2-ylcarbamate]	14.5 µM	7.81 µM
CC(C)(C)OC(=O)c1ccc(CNc2nc(Nc3cc(Cl)cc(Cl)c3)n[nH]2)cc1 [Compound 7, tert-butyl 4-((3-(3,5-dichlorophenylamino)-1H-1,2,4-triazol-5-ylamino)methyl)benzoate]	33.3 µM	0.414 µM
CC(C)(C)OC(=O)c1ccccc1CNc1nc(Nc2cc(Cl)cc(Cl)c2)n[nH]1 [Compound 8, tert-butyl 2-((3-(3,5-dichlorophenylamino)-1H-1,2,4-triazol-5-ylamino)methyl)benzoate]	22 µM	9.99 µM
Clc1cc(Cl)cc(Nc2n[nH]c(NCc3ccccc3)n2)c1 [Compound 9, N5-benzyl-N3-(3,5-dichlorophenyl)-1H-1,2,4-triazole-3,5-diamine]	22.8 µM	1.72 µM
Nc1ccc(CNc2nc(Nc3cc(Cl)cc(Cl)c3)n[nH]2)cn1 [Compound 10, N5-((6-aminopyridin-3-yl)methyl)-N3-(3,5-dichlorophenyl)-1H-1,2,4-triazole-3,5-diamine]	100 µM	58.3 µM
Cn1cc(CNc2nc(Nc3cc(Cl)cc(Cl)c3)n[nH]2)cn1 [Compound 11, N3-(3,5-dichlorophenyl)-N5-((1-methyl-1H-pyrazol-4-yl)methyl)-1H-1,2,4-triazole-3,5-diamine]	25.7 µM	23.9 µM
O=C(O)c1ccc(CNc2nc(Nc3cc(Cl)cc(Cl)c3)n[nH]2)cc1 [Compound 12, 4-((3-(3,5-dichlorophenylamino)-1H-1,2,4-triazol-5-ylamino)methyl)benzoic acid; trifluoroacetic acid salt]	100 µM	19.5 µM
O=C(O)c1cccc(CNc2nc(Nc3cc(Cl)cc(Cl)c3)n[nH]2)c1 [Compound 13, 3-((3-(3,5-dichlorophenylamino)-1H-1,2,4-triazol-5-ylamino)methyl)benzoic acid; trifluoroacetic acid salt]	78.1 µM	37.5 µM
O=C(O)c1ccccc1CNc1nc(Nc2cc(Cl)cc(Cl)c2)n[nH]1 [Compound 14, 2-((3-(3,5-dichlorophenylamino)-1H-1,2,4-triazol-5-ylamino)methyl)benzoic acid; trifluoroacetic acid salt]	100 µM	96 µM
CS(=O)(=O)c1ccc(CNc2nc(Nc3cc(Cl)cc(Cl)c3)n[nH]2)cc1 [Compound 15, N3-(3,5-dichlorophenyl)-N5-(4-(methylsulfonyl)benzyl)-1H-1,2,4-triazole-3,5-diamine]	10 µM	10 µM
N#Cc1ccc(CNc2nc(Nc3cc(Cl)cc(Cl)c3)n[nH]2)cc1 [Compound 16, 4-((3-(3,5-dichlorophenylamino)-1H-1,2,4-triazol-5-ylamino)methyl)benzonitrile]	10 µM	3.34 µM
CN(C)S(=O)(=O)c1ccc(CNc2nc(Nc3cc(Cl)cc(Cl)c3)n[nH]2)cc1 [Compound 17, 4-((3-(3,5-dichlorophenylamino)-1H-1,2,4-triazol-5-ylamino)methyl)-N,N-dimethylbenzenesulfonamide]	10 µM	10 µM
FC(F)(F)c1ccc(CNc2nc(Nc3cc(Cl)cc(Cl)c3)n[nH]2)cc1Cl [Compound 19, N5-(3-chloro-4-(trifluoromethyl)benzyl)-N3-(3,5-dichlorophenyl)-1H-1,2,4-triazole-3,5-diamine]	10 µM	4.83 µM
O=S(=O)(c1ccc(CNc2nc(Nc3cc(Cl)cc(Cl)c3)n[nH]2)cc1)N1CCCC1 [Compound 20, N3-(3,5-dichlorophenyl)-N5-(4-(pyrrolidin-1-ylsulfonyl)benzyl)-1H-1,2,4-triazole-3,5-diamine]	10 µM	10 µM
O=S(=O)(c1ccc(CNc2nc(Nc3cc(Cl)cc(Cl)c3)n[nH]2)cc1)N1CCOCC1 [Compound 21, N3-(3,5-dichlorophenyl)-N5-(4-(morpholinosulfonyl)benzyl)-1H-1,2,4-triazole-3,5-diamine]	10 µM	10 µM
N#Cc1c(Cl)cc(Nc2n[nH]c(NCc3ccc(C(F)(F)F)cc3)n2)cc1Cl [Compound 22, 2,6-dichloro-4-(5-(4-(trifluoromethyl)benzylamino)-1H-1,2,4-triazol-3-ylamino)benzonitrile]	5.3 µM	0.224 µM
CC(C)(C)OC(=O)c1ccc(CNc2nc(Nc3cc(Cl)c(C#N)c(Cl)c3)n[nH]2)cc1 [Compound 23, tert-butyl 4-((3-(3,5-dichloro-4-cyanophenylamino)-1H-1,2,4-triazol-5-ylamino)methyl)benzoate]	10 µM	0.029 µM
CC(C)S(=O)(=O)c1ccc(-c2c(Cl)cc(Nc3n[nH]c(NCc4ccc(C(=O)OC(C)(C)C)cc4)n3)cc2C(F)(F)F)cc1 [Compound 24, tert-butyl 4-((3-(2-chloro-4′-(isopropylsulfonyl)-6-(trifluoromethyl)biphenyl-4-ylamino)-1H-1,2,4-triazol-5-ylamino)methyl)benzoate]	6.2 µM	0.014 µM
FC(F)(F)c1ccc(CNc2nc(Nc3cc(Cl)cc(Cl)c3)n[nH]2)cc1 [Compound 25, N*3*-(3,5-Dichloro-phenyl)-N*5*-(4-trifluoromethyl-benzyl)-1H-[1,2,4]triazole-3,5-diamine]	29.1 µM	0.046 µM
FC(F)(F)c1cccc(CNc2nc(Nc3cc(Cl)cc(Cl)c3)n[nH]2)c1 [Compound 26, N*3*-(3,5-Dichloro-phenyl)-N*5*-(3-trifluoromethyl-benzyl)-1H-[1,2,4]triazole-3,5-diamine]	30.3 µM	0.709 µM
CS(=O)(=O)N1CCC(Nc2nc(Nc3cc(Cl)cc(Cl)c3)n[nH]2)CC1 [Compound 27, N*3*-(3,5-Dichloro-phenyl)-N*5*-(1-methanesulfonyl-piperidin-4-yl)-1H-[1,2,4]triazole-3,5-diamine]	42.4 µM	59.6 µM
CC(C)(C)OC(=O)N1CCC(Nc2nc(Nc3cc(Cl)cc(Cl)c3)n[nH]2)CC1 [Compound 28, 4-[5-(3,5-Dichloro-phenylamino)-2H-[1,2,4]triazol-3-ylamino]-piperidine-1-carboxylic acid tert-butyl ester]	11.1 µM	6.57 µM
Clc1cc(Cl)cc(Nc2n[nH]c(NC3CCNCC3)n2)c1 [Compound 29, N*3*-(3,5-Dichloro-phenyl)-N*5*-piperidin-4-yl-1H-[1,2,4]triazole-3,5-diamine; compound with trifluoro-acetic acid]	10 µM	10 µM
CC(=O)N1CCC(Nc2nc(Nc3cc(Cl)cc(Cl)c3)n[nH]2)CC1 [Compound 30, 1-{4-[5-(3,5-Dichloro-phenylamino)-2H-[1,2,4]triazol-3-ylamino]-piperidin-1-yl}-ethanone]	49.6 µM	95.8 µM
Clc1cc(Cl)cc(Nc2n[nH]c(NCc3cncnc3)n2)c1 [Compound 31, N*3*-(3,5-Dichloro-phenyl)-N*5*-pyrimidin-5-ylmethyl-1H-[1,2,4]triazole-3,5-diamine]	100 µM	44.3 µM

Reference: patent publication US9428469B2, “Antiviral compounds” (priority 2013, dated 2016)
